Results reported in US11077090B2, “Compounds and compositions and uses thereof” (Sunovion Pharmaceuticals Inc., priority 2016, dated 2021).

Test system: compound-treated mice
Experiment: Neuropharmacological assay (SmartCube): behavioral activity signature and minimal effective dose
Assay type: in vivo
Settings: for minimal effective dose: Mus musculus, ip, MED = dose having 50% or more total activity, read-out: Potency: minimal effective dose (MED); for AD: ADHD (probability of activity signature) / AG: analgesic (probability of activity signature) / AX: anxiolytic (probability of activity signature) / CE: cognitive enhancer (probability of activity signature) / DP: anti-depressant (probability of activity signature) / MS: mood stabilizer (probability of activity signature) / PS: anti-psychotic (probability of activity signature) / SD: sedative hypnotic (probability of activity signature) / UN: uncharacterized CNS activity (probability of activity signature): i.p. 15 min before test, most efficacious dose(s)
How it was run: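 Mice dosed i.p. 15 min before test, compound in N-methyl-2-pyrrolidone/PEG/propylene glycol, 3 doses; video-captured behavior matched to reference-drug signatures, giving per-class probabilities at most efficacious dose. MED from doses typically 0.3–30 mpk, defined as lowest dose with ≥50% total activity.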

Row | SMILES | minimal effective dose [mg/kg] | AD: ADHD (probability of activity signature) | AG: analgesic (probability of activity signature) | AX: anxiolytic (probability of activity signature) | CE: cognitive enhancer (probability of activity signature) | DP: anti-depressant (probability of activity signature) | MS: mood stabilizer (probability of activity signature) | PS: anti-psychotic (probability of activity signature) | SD: sedative hypnotic (probability of activity signature) | UN: uncharacterized CNS activity (probability of activity signature)
1 | C[C@@H]1OCc2ccc(F)cc2[C@@H]1N.Cl [Example 88] | < 3 | + (LOQ ≤ + <5%) | ++ (5% ≤ ++ <25%) | +++ (25% ≤ +++ <50%) | ++ (5% ≤ ++ <25%) | + (LOQ ≤ + <5%) | + (LOQ ≤ + <5%) | ++ (5% ≤ ++ <25%) | ++ (5% ≤ ++ <25%) | +++ (25% ≤ +++ <50%)
2 | C[C@H]1OCc2ccc(F)cc2[C@@H]1N.Cl [Example 89] | < 3 | + (LOQ ≤ + <5%) | ++ (5% ≤ ++ <25%) | ++ (5% ≤ ++ <25%) | ++ (5% ≤ ++ <25%) | + (LOQ ≤ + <5%) | + (LOQ ≤ + <5%) | ++ (5% ≤ ++ <25%) | ++ (5% ≤ ++ <25%) | ++++ (50% ≤ ++++)
3 | C[C@H]1OCc2ccc(Cl)c(Cl)c2[C@@H]1N.Cl [Example 92] | 10 to 30 | + (LOQ ≤ + <5%) | + (LOQ ≤ + <5%) | ++ (5% ≤ ++ <25%) | + (LOQ ≤ + <5%) | ++ (5% ≤ ++ <25%) | + (LOQ ≤ + <5%) | + (LOQ ≤ + <5%) | + (LOQ ≤ + <5%) | ++++ (50% ≤ ++++)
4 | C[C@@H]1OCc2cc(Cl)ccc2[C@@H]1N.Cl [Example 93] | 10 to 30 | + (LOQ ≤ + <5%) | ++ (5% ≤ ++ <25%) | +++ (25% ≤ +++ <50%) | + (LOQ ≤ + <5%) | ++ (5% ≤ ++ <25%) | + (LOQ ≤ + <5%) | ++ (5% ≤ ++ <25%) | + (LOQ ≤ + <5%) | + (LOQ ≤ + <5%)
5 | C[C@H]1OCc2cc(Cl)ccc2[C@@H]1N.Cl [Example 94] | 10 to 30 | + (LOQ ≤ + <5%) | ++ (5% ≤ ++ <25%) | ++ (5% ≤ ++ <25%) | + (LOQ ≤ + <5%) | + (LOQ ≤ + <5%) | + (LOQ ≤ + <5%) | + (LOQ ≤ + <5%) | + (LOQ ≤ + <5%) | ++ (5% ≤ ++ <25%)
6 | Cc1ccc2c(c1)CO[C@@H](C)[C@H]2N.Cl [Example 95] | < 3 | + (LOQ ≤ + <5%) | ++ (5% ≤ ++ <25%) | ++ (5% ≤ ++ <25%) | ++ (5% ≤ ++ <25%) | ++ (5% ≤ ++ <25%) | + (LOQ ≤ + <5%) | +++ (25% ≤ +++ <50%) | + (LOQ ≤ + <5%) | +++ (25% ≤ +++ <50%)
7 | Cc1ccc2c(c1)CO[C@H](C)[C@H]2N.Cl [Example 96] | < 3 | + (LOQ ≤ + <5%) | ++ (5% ≤ ++ <25%) | +++ (25% ≤ +++ <50%) | ++ (5% ≤ ++ <25%) | ++ (5% ≤ ++ <25%) | + (LOQ ≤ + <5%) | ++ (5% ≤ ++ <25%) | + (LOQ ≤ + <5%) | +++ (25% ≤ +++ <50%)
8 | Cc1cccc2c1CO[C@@H](C)[C@H]2N.Cl [Example 97] | 3 to 10 | + (LOQ ≤ + <5%) | + (LOQ ≤ + <5%) | ++ (5% ≤ ++ <25%) | ++ (5% ≤ ++ <25%) | + (LOQ ≤ + <5%) | + (LOQ ≤ + <5%) | ++ (5% ≤ ++ <25%) | ++ (5% ≤ ++ <25%) | ++++ (50% ≤ ++++)
9 | Cc1cccc2c1CO[C@H](C)[C@H]2N.Cl [Example 98] | 3 to 10 | + (LOQ ≤ + <5%) | ++ (5% ≤ ++ <25%) | ++ (5% ≤ ++ <25%) | ++ (5% ≤ ++ <25%) | ++ (5% ≤ ++ <25%) | + (LOQ ≤ + <5%) | ++ (5% ≤ ++ <25%) | ++ (5% ≤ ++ <25%) | ++++ (50% ≤ ++++)
10 | CC1(C)OCc2ccccc2C1N.Cl (stereo not drawn) [Example 101, 3,3-Dimethylisochroman-4-amine hydrochloride] | 10 to 30 | + (LOQ ≤ + <5%) | ++ (5% ≤ ++ <25%) | +++ (25% ≤ +++ <50%) | + (LOQ ≤ + <5%) | ++ (5% ≤ ++ <25%) | + (LOQ ≤ + <5%) | ++ (5% ≤ ++ <25%) | ++ (5% ≤ ++ <25%) | + (LOQ ≤ + <5%)
11 | Cc1ccc2c(c1)[C@H](N)CO[C@@H]2C.Cl [Example 106] | 3 to 10 | + (LOQ ≤ + <5%) | + (LOQ ≤ + <5%) | ++ (5% ≤ ++ <25%) | ++ (5% ≤ ++ <25%) | + (LOQ ≤ + <5%) | + (LOQ ≤ + <5%) | ++ (5% ≤ ++ <25%) | ++ (5% ≤ ++ <25%) | ++++ (50% ≤ ++++)
12 | Cc1ccc2c(c1)[C@H](N)CO[C@H]2C.Cl [Example 107] | 3 to 10 | + (LOQ ≤ + <5%) | ++ (5% ≤ ++ <25%) | ++ (5% ≤ ++ <25%) | ++ (5% ≤ ++ <25%) | + (LOQ ≤ + <5%) | + (LOQ ≤ + <5%) | ++ (5% ≤ ++ <25%) | + (LOQ ≤ + <5%) | +++ (25% ≤ +++ <50%)
13 | N[C@@H]1COCc2cccc(Cl)c21 [Example 127] | < 3 | + (LOQ ≤ + <5%) | ++ (5% ≤ ++ <25%) | ++ (5% ≤ ++ <25%) | ++ (5% ≤ ++ <25%) | ++ (5% ≤ ++ <25%) | + (LOQ ≤ + <5%) | ++ (5% ≤ ++ <25%) | + (LOQ ≤ + <5%) | +++ (25% ≤ +++ <50%)
14 | N[C@H]1COCc2cccc(Cl)c21 [Example 128] | < 3 | + (LOQ ≤ + <5%) | ++ (5% ≤ ++ <25%) | ++ (5% ≤ ++ <25%) | +++ (25% ≤ +++ <50%) | ++ (5% ≤ ++ <25%) | + (LOQ ≤ + <5%) | ++ (5% ≤ ++ <25%) | + (LOQ ≤ + <5%) | +++ (25% ≤ +++ <50%)
15 | N[C@@H]1COCc2c(Cl)cccc21 [Example 131] | < 3 | + (LOQ ≤ + <5%) | + (LOQ ≤ + <5%) | ++ (5% ≤ ++ <25%) | +++ (25% ≤ +++ <50%) | ++ (5% ≤ ++ <25%) | ++ (5% ≤ ++ <25%) | ++ (5% ≤ ++ <25%) | ++ (5% ≤ ++ <25%) | +++ (25% ≤ +++ <50%)
